This passage reports pest or weed control, Volatility and Control/Injury results from US20240122179A1, “AUXINIC HERBICIDES AND METHODS OF USE THEREOF” (CORTEVA AGRISCIENCE LLC, priority 2021, published 2024).

The subject of one series is Amaranthus rudis (AMATA). In words: Postemergence herbicide evaluation, percent reduction in plant size vs untreated control, 21 days after treatment. Type of series: in vivo, Amaranthus rudis (tall water hemp). The note with it: Amaranthus tuberculatus, post-emergence, 504 h, AMATA, postemergence, read-out: Control/Injury; for pest or weed control at 140 g/ha: rate 140 g ae/ha; for pest or weed control at 280 g/ha: rate 280 g ae/ha. Put shortly:
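Growth-reduction values are percent decrease in plant size relative to untreated plants, scored 21 days post-application. Amaranthus rudis (2-8 leaves) received postemergence sprays at 140 or 280 g ae/ha, 187 L/ha, in a mixed acetone/DMSO/water/isopropanol carrier with crop oil concentrate. Greenhouse conditions were 25-28° C, 50-60% RH; 3-4 randomized replicates.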

Series [1] has as its system Ambrosia artemisiifolia (AMBEL). The description is as above. Type of series: in vivo, Ambrosia artemisiifolia (common ragweed). The note with it: post-emergence, 504 h, AMBEL, postemergence, read-out: Control/Injury; for pest or weed control at 140 g/ha: rate 140 g ae/ha; for pest or weed control at 280 g/ha: rate 280 g ae/ha. In short, it runs like this:
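Test compounds at 140 or 280 g ae/ha were applied by track sprayer (187 L/ha, spray solution containing acetone/DMSO, isopropanol, crop oil, surfactant) to 2–8 leaf plants, 3–4 replicates. Plants were kept in a greenhouse at 25–28 °C. Size reduction was scored against untreated controls at 21 days.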

For series [2], the system named is Amaranthus palmeri (AMAPA). Described as above. The note with it: post-emergence, 504 h, postemergence, read-out: Control/Injury; for pest or weed control at 140 g/ha: rate 140 g ae/ha; for pest or weed control at 280 g/ha: rate 280 g ae/ha. Type of series: in vivo, Amaranthus palmeri (Palmer amaranth). In short, it runs like this:
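Percent reduction in plant size relative to untreated plants, measured 21 days after track-sprayer application (187 L/ha) of 140 or 280 g ae/ha to Amaranthus palmeri at the 2 to 8 leaf stage. Randomized complete block, 3 or 4 replicates, greenhouse at 25 to 28° C; spray solution acetone/DMSO with isopropanol, water and crop oil concentrate.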

The nature of series [3]: Volatility of compounds measured by thermogravimetric analysis (TGA), rate of weight loss. Type of series: physicochemical. The note with it: estimates of volatility. The source says:
Briefly, the rate of weight loss measured in units of […]g/min can be used to determine vapor pressure as shown by the simplified equation: wherein, k is the intrinsic volatility and A is the surface area, Referring now to FIG. 2. A graph of weight loss as function of time for solid samples produces a linear curve; the slope of the curve is the rate of weight loss. When this method is used to measure the volatility of aqueous salt concentrates or liquid concentrates, the water or acetone present in the sample volatilizes before the sample of interest. The first linear loss region of the curve is the loss of water or acetone and the second linear region is characteristic of the sample of interest. In order to illustrate the difference in volatility between some of the compounds disclosed herein and the widely used herbicide dicamba, data from both the compounds and dicamba are presented Table 3 and in FIG. 1.

In a further series the test system is Kochia scoparia (KCHSC). In words: Postemergence herbicide evaluation, percent reduction in plant size vs untreated control, 21 days after treatment. The note with it: KCHSC, postemergence; for pest or weed control at 140 g/ha / pest or weed control at 280 g/ha: Bassia scoparia, post-emergence, 504 h, read-out: Control/Injury; for pest or weed control at 280 g/ha: rate 280 g ae/ha. Type of series: in vivo. In short, it runs like this: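 Values are percent reduction in plant size against an untreated control, measured 21 days after a single postemergence spray at 140 or 280 g ae/ha (187 L/ha, 276 kPa). Treatments used 3-4 randomized complete-block replicates on 2 to 8 leaf-stage plants kept in a 25-28 °C greenhouse, with compounds in acetone/DMSO-based solvent containing crop oil and surfactant.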

The subject of series [4] is Conyza canadensis (L.) (ERICA). The description is as above. Type of series: in vivo, Conyza canadensis (L.) (Horseweed). The note with it: Erigeron canadensis, post-emergence, 504 h, ERICA, postemergence, read-out: Control/Injury; for pest or weed control at 140 g/ha: rate 140 g ae/ha; for pest or weed control at 280 g/ha: rate 280 g ae/ha. In short, it runs like this: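 Track-sprayer applications (187 L/ha, 276 kPa) of 140 or 280 g ae/ha, technical material dissolved in acetone/DMSO then diluted with crop oil and surfactant-containing solvent, to greenhouse Conyza canadensis at 2-8 leaves. After 21 days, size reduction relative to untreated plants was recorded; 3-4 randomized replicates.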

The mark [5] stands for this setting: rate 140 g ae/ha, percent reduction vs untreated, 21 days after treatment.
The mark [6] stands for this setting: percent reduction vs untreated, 21 days after treatment.
[7] abbreviates: R-AMAPA, percent reduction vs untreated control, 21 days after treatment.
Where [8] appears, read: percent reduction vs untreated control, 21 days after treatment.

Where two headings read alike, the source gives them in different places.

Take `CCCC[C@H](CC)COC(=O)c1c(Cl)ccc(Cl)c1OC` [Compound A-137]: the pest or weed control at 140 g/ha with Amaranthus rudis (AMATA) amounted to 1%; in series [1], 33%; in series [2] (AMAPA) it was 15%; in the series with Kochia scoparia (KCHSC) (setting [5]), 6%; in series [4] (setting [6]), 0%. In addition, the pest or weed control at 280 g/ha with Amaranthus rudis (AMATA) stood at 8%; in series [1] it was 36%; in series [2] (AMAPA) it was 15%; in the series with Kochia scoparia (KCHSC) (setting [6]), 3%; in series [4] (setting [6]), 0%. In addition, the Volatility in series [3] is 3.42 ng/min.
`COc1c(Cl)ccc(Cl)c1C(=O)OCOC(=O)c1c(Cl)ccc(Cl)c1OC` [Compound A-53]: the pest or weed control at 140 g/ha in series [1] was found to be 60%; in series [2] (setting [7]), 70%; in the series with Kochia scoparia (KCHSC) (rate 140 g ae/ha) it was 85%. Moreover, the values for the pest or weed control at 280 g/ha (in series [1]; in series [2] (setting [7]); in the series on Kochia scoparia (KCHSC)) were 70%, 98% and 90%, respectively. Also, the Volatility in series [3] is on record as 0.19 ng/min. In the series on Kochia scoparia (KCHSC) (rate 140 g ae/ha), the Control/Injury is recorded as 85.
`COc1c(Cl)ccc(Cl)c1C(=O)O/N=C(\N)C(C)C` [Compound A-48]: the pest or weed control at 140 g/ha in the series on Amaranthus rudis (AMATA) stood at 60%; in series [1], 85%; in series [2] (setting [7]), 90%; in the series on Kochia scoparia (KCHSC) (rate 140 g ae/ha), 90%. The pest or weed control at 280 g/ha came out at 90% in the series with Amaranthus rudis (AMATA), 100% in series [1], 99% in series [2] (setting [7]) and 100% in the series on Kochia scoparia (KCHSC). Moreover, the Volatility in series [3] is on record as 0.38 ng/min.
Consider `COc1c(Cl)ccc(Cl)c1C(=O)Nc1ccnn1C` [Compound A-134], for which the pest or weed control at 140 g/ha in the series with Amaranthus rudis (AMATA) came to 15%; in series [1], 33%; in series [2] (AMAPA), 15%; in the series on Kochia scoparia (KCHSC) (setting [5]), 0%; in series [4], 5%. Besides, the pest or weed control at 280 g/ha with Amaranthus rudis (AMATA) is 8%; in series [1] it was 30%; in series [2] (AMAPA) it was 15%; in the series with Kochia scoparia (KCHSC) (setting [6]), 0%; in series [4] (setting [6]) it was 10%. Further, the Volatility in series [3] is listed as 0.01 ng/min.
Turning to `COc1c(Cl)ccc(Cl)c1C(=O)NOCc1ccccc1` [Compound A-98], the pest or weed control at 140 g/ha in the series with Amaranthus rudis (AMATA) worked out at 18%; in series [1], 20%; in series [2] (AMAPA), 23%; with Kochia scoparia (KCHSC) (setting [5]) it was 8%; in series [4], 2%. The pest or weed control at 280 g/ha with Amaranthus rudis (AMATA) is 13%; in series [1], 15%; in series [2] (AMAPA) it was 20%; in the series with Kochia scoparia (KCHSC) (setting [6]), 0%; in series [4] it was 3%. Besides, the Volatility in series [3] is 0.08 ng/min.
With `COc1c(Cl)ccc(Cl)c1C(=O)Oc1cc2ccccc2n1C` [Compound A-117], the pest or weed control at 140 g/ha came to 85% in the series with Amaranthus rudis (AMATA); 90% in series [1]; 83% in series [2] (AMAPA); 80% with Kochia scoparia (KCHSC) (setting [5]); 98% in series [4] (setting [6]). The pest or weed control at 280 g/ha was determined as 85% in the series on Amaranthus rudis (AMATA); 97% in series [1]; 89% in series [2] (AMAPA); 98% in the series with Kochia scoparia (KCHSC) (setting [6]); 95% in series [4] (setting [6]). Besides, the Volatility in series [3] is 0.04 ng/min.
As to `COc1c(Cl)ccc(Cl)c1C(=O)OCCOCCOC(=O)c1c(Cl)ccc(Cl)c1OC` [Compound A-55], in series [1], the pest or weed control at 140 g/ha stood at 25%. Besides, the Volatility in series [3] was 0.24 ng/min. Moreover, in the series with Kochia scoparia (KCHSC), the pest or weed control at 280 g/ha was determined as 15%.
In the case of `COc1c(Cl)ccc(Cl)c1C(=O)OCOC(=O)c1ccccc1` [Compound A-51], the values for the pest or weed control at 140 g/ha (in series [1]; in series [2] (setting [7]); in the series on Kochia scoparia (KCHSC) (rate 140 g ae/ha)) were 90%, 95% and 92%, respectively. Also, the results for the pest or weed control at 280 g/ha (in series [1]; in series [2] (setting [7]); in the series with Kochia scoparia (KCHSC)) were 95%, 95% and 99%, respectively. For the same molecule, the Volatility in series [3] is on record as 0.25 ng/min.
With `COc1c(Cl)ccc(Cl)c1C(=O)O/N=C(\C)c1ccccc1` [Compound A-46], the results for the pest or weed control at 140 g/ha (in series [1]; in series [2] (setting [7]); with Kochia scoparia (KCHSC) (rate 140 g ae/ha)) were 85%, 85% and 99%, respectively. The pest or weed control at 280 g/ha came out at 82% in series [1], 80% in series [2] (setting [7]) and 100% in the series with Kochia scoparia (KCHSC). Also, the Volatility in series [3] is 0.1 ng/min.
On to `COc1c(Cl)ccc(Cl)c1C(=O)O/N=C(\N)c1cccnc1` [Compound A-50], for which the pest or weed control at 140 g/ha in the series with Amaranthus rudis (AMATA) was 95%; in series [1] it was 90%; in series [2] (setting [7]) it was 95%; in the series with Kochia scoparia (KCHSC) (rate 140 g ae/ha), 99%. For the same molecule, the pest or weed control at 280 g/ha stood at 97% with Amaranthus rudis (AMATA), 100% in series [1], 99% in series [2] (setting [7]) and 99% in the series on Kochia scoparia (KCHSC). Also, in series [3], the Volatility is recorded as 0.09 ng/min.
As to `COc1c(Cl)ccc(Cl)c1C(=O)O/N=C(\N)c1ccccc1` [Compound A-49], the pest or weed control at 140 g/ha in series [1] was determined as 98%; in series [2] (setting [7]), 95%; in the series on Kochia scoparia (KCHSC) (rate 140 g ae/ha) it was 82%; in series [4] (setting [8]) it was 95%. In addition, the pest or weed control at 280 g/ha in series [1] was 99%; in series [2] (setting [7]), 100%; in the series with Kochia scoparia (KCHSC) it was 100%; in series [4] (setting [8]), 98%. In addition, the Volatility in series [3] is 0.08 ng/min.
Take `COc1c(Cl)ccc(Cl)c1C(=O)O/N=C(\N)c1ccccc1` [Compound A-150]: the pest or weed control at 140 g/ha was 80% in series [2] (AMAPA), 88% in the series with Kochia scoparia (KCHSC) (setting [5]), 98% in series [4] and 95% in series [4] (setting [6]). Also, the pest or weed control at 280 g/ha was determined as 78% in series [2] (AMAPA), 99% with Kochia scoparia (KCHSC) (setting [6]), 97% in series [4] and 98% in series [4] (setting [6]). Further, the Volatility in series [3] is on record as 0.08 ng/min.
